Data: patent US10023864B2, “Methods of treating a metabolic syndrome by modulating heat shock protein (HSP) 90-beta” (Berg LLC, priority 2014, dated 2018)
Entries after “also recorded” stand apart in the source; their conditions may differ. d = 2'-deoxy (DNA); m = 2'-O-methyl

Experiments:
DIO mice [1] = assay: Insulin level in DIO mice; format: in vivo, mouse
Procedure: (§1) The mice were divided into four groups: (1) lean (non-diabetic control); (2) diabetic receiving control ASO (NC-ASO); (3) diabetic receiving ASO5; and (4) diabetic receiving ASO6. In various experiments mice were dosed intra-peritoneally with twice per week injection of ASO at […] body weight for 4 or 8 weeks. Skeletal muscles were subjected to quantitative PCR.
Further, the effect of the reduction of Hsp90ab1 protein level on plasma insulin levels was examined.

[2] = system: skeletal muscles of DIO mice; assay: Skeletal muscle gene expression and PDH-E1α phosphorylation in DIO mice; format: in vivo, mouse
Text: PDK4 is known to phosphorylate pyruvate dehydrogenase (PDH)-E1α subunit, thereby inhibiting PDH and downregulating mitochondrial glucose oxidation. […] This decrease in phosphorylation is indicative of an increase in active PDH-E1α and a resultant increase in mitochondrial glucose oxidation. Thus, ASO mediated Hsp90ab1 knock-down is effective for enhancing substrate metabolism through suppression of PDK4 expression.
These genes are PFKM (phosphofructokinase, muscle), ALDOA (aldolase A), GYS1 (glycogen synthase 1) ACCA (Acetyl-CoA carboxylase), HSL (Hormone sensitive lipase), SCD1 (Stearoyl-CoA desaturase), ACADL (Acyl-CoA Dehydrogenase), and CPT1b (Carnitine palmitoyltransferase I). Gene expression was examined in the skeletal muscles of the mice.

DIO mice [3] = assay: Fed / plasma glucose level in DIO mice; format: in vivo, mouse
Procedure: as §1
Additional experiments were performed to determine the effect of the reduction of Hsp90ab1 protein level on the level of glucose in plasma. […] Thus, treatment with an Hsp90ab1 selective ASO is effective for improving glucose utilization in DIO mice.

muscle of DIO mice = assay: Lipidomic analysis of muscle of DIO mice; format: in vivo, mouse
Text: As noted in the above examples, Hsp90ab1 was identified as a critical node in Bayesian metabolic disease network derived by the interrogation of the biology underlying diabetes in a data driven manner. This was achieved by using a proprietary platform integrating pan-omic data, mitochondrial-centric metabolic fingerprint and phenotypic assays capturing metabolic dysregulation reminiscent of obesity/diabetes sequale. Hsp90ab1 is an ATPase targeting multiple clients including vital components of insulin signaling and mitochondrial membrane proteins. However the role of Hsp90ab1 in metabolism remains unknown. […] This was accompanied by decreased muscle PDH E1a phosphorylation, reflecting an increased insulin sensitivity and carbohydrate substrate metabolism. We also observed significant alteration in the lipidomic profile in these DIO mice treated with ASO6. For example ASO6-mediated knockdown of Hsp90ab1 in DIO mice increased 18:2 enriched species of cardiolipin in muscle. […] Taken together, our data provides novel evidence that Hsp90ab1 isoform is a key regulator of skeletal muscle cell metabolism and systemic metabolism, and represents a target for treatment of diabetes.

DIO mice [4] = assay: Intraperitoneal glucose tolerance test (IPGTT) in DIO mice; format: in vivo, mouse; settings: four weeks treatment, vs NC ASO
Procedure: Glucose tolerance tests (GTT) are performed after 6 h of fasting. Initial fasting blood glucose levels are determined, followed by intraperitoneal (ip) injection of 20% dextrose solution at a dose of 2.0 g/kg body weight (2 g/kg body weight). Blood glucose levels are measured from the tail vein at 15, 30, 60, 90, 120, 150, and 180 minutes after the glucose injection using a commercially available glucose monitor, e.g., an Accu-chek® Advantage glucometer (Roche Diagnostics®, Indianapolis, Ind.). The area under the curve (AUC) during the GTT is calculated using a commercially available software program, e.g., GraphPad Prism software. GTT experiments for different groups are run in parallel. At each time point of the tail vein glucose measurements, ˜40 μL of tail vein blood is collected and plasma is prepared for subsequent insulin level assays using ELISA/RIA for time points at 0, 15, and 30 min after glucose injections.
HSP90AB1 antisense oligonucleotides (ASO) specific to HSP90AB1 were administered to DIO mice. […]
The mice were divided into four groups: (1) lean (non-diabetic control); (2) diabetic receiving control ASO (NC-ASO); (3) diabetic receiving ASO5; and (4) diabetic receiving ASO6. […] Skeletal muscles were subjected to quantitative PCR.
At the end of the treatment period glucose tolerance was measured. […]

Hsp90ab1 mRNA = Hsp90ab1 mRNA in gastrocnemius muscles of DIO mice (quantitative PCR); format: in vivo, mouse; settings: ASO intra-peritoneally twice per week
Procedure: as §1

human Hsp90AB1 mRNA = assay: Knockdown of Hsp90AB1 mRNA in HSMM myotubes; format: cell-based; settings: normalized to cyclophilin, vs NC1ASO
Text: The level of human Hsp90AB1 at the mRNA level was similarly observed to be reduced in HSMM myotubes treated with the exemplary mouse antisense oligonucleotide ASO6 (FIG. 20). ASO6 (and ASOs 1-5 and 7-9) is derived from the mouse HSP90AB1 gene. The oligonucleotide NC1ASO was again used as a negative control. The level of HSP90 mRNA was normalized to a control (cyclophilin) mRNA. The human and the mouse Hsp90aB1 gene share 96% homology.

human Hsp90AB1 protein = assay: Knockdown of Hsp90AB1 protein in HSMM by Western blotting; format: cell-based; settings: Western blot, normalized to actin, vs NC1
Procedure: ASO1-ASO6 were tested for their ability to knock down human Hsp90AB1 levels in HSMM myotubes. The effectiveness of oligonucleotides ASO1 (A1), ASO2 (A2) ASO3 (A3) ASO4 (A4) ASO5 (A5) and ASO6 (A6) in knocking down the expression of HSP90AB1 protein is shown by Western blotting in FIGS. 19A and 19B. The oligonucleotide NC1 was used as a negative control. HSP90Ab1 protein levels were normalized to the levels of actin.
The ASO oligonucleotides ASO5, ASO13 and ASO18 were tested for their ability to reduce expression of human Hsp90AB1 protein in human skeletal muscle myotubes (HSMM) and C2C12 mouse myoblasts by Western blotting. ASO5 was derived from the mouse HSP90ab1 gene, while ASO13 and ASO18 were directed to the human HSP90ab1 gene. The oligonucleotide NC1 was used as a negative control. HSP90AB1protein levels were normalized to the levels of actin.

mU*mC*mC*mU*mC*mC*T*C*T*T*T*C*T*C*A*C*C*T*mU*mU*mC*mU*mC*mU (antisense UCCUCCTCTTTCTCACCTUUCUCU; sugars from the 5' end m6 d12 m6, all phosphorothioate, methylation of C not given here) [ASO6, modified antisense oligonucleotide derived from the mouse HSP90AB1 gene]
fed insulin levels (DIO mice [1]): significant reduction | PDK4 expression (mRNA) in skeletal muscle ([2]; DIO mice (fed HFD), 4 weeks, vs NC): significant decrease | phosphorylation of PDH-E1α (S232, S293, S300) in skeletal muscle ([2]; DIO mice, Western blot): decreased | skeletal muscle mRNA level of Adipose triglyceride lipase (ATGL) ([2]; DIO mice, four weeks): sharp increase | expression of key genes that regulate glycolysis and lipid oxidation (PFKM, ALDOA, GYS1, ACCA, HSL, SCD1, ACADL, CPT1b) ([2]; DIO mice, four weeks, skeletal muscles): influences the expression | fed glucose level (DIO mice [3]; DIO mice, eight weeks treatment): significant improvement | fed glucose levels (DIO mice [3]; HFD fed C57B/6 mice, 4 weeks treatment): suppressed | 18:0 and 18:0-OH acylcarnitines in muscle (muscle of DIO mice): selectively decreased | 18:2 enriched species of cardiolipin in muscle (muscle of DIO mice): increased | steric, oleic, and linoleic free fatty acids (FFA) in muscle (muscle of DIO mice): decreased | glucose tolerance (IPGTT) (DIO mice [4]): significant improvement; also recorded: significantly improved | Hsp90ab1 mRNA level in the gastrocnemius muscles (Hsp90ab1 mRNA): effective; also recorded: reduce | level of human Hsp90AB1 mRNA (human Hsp90AB1 mRNA): knockdown; also recorded: reduced | level of HSP90ab1 protein (human Hsp90AB1 protein): effective; also recorded: most effective
